Among the data in patent publication US11845752B2, “Substituted imidazo[1,5-a]pyrazines for the treatment of hepatitis B” (ALIGOS THERAPEUTICS, INC., priority 2020, dated 2023) are EC50 values, retold here.

SMILES strings stand for the structures. Where two headings read alike, the source gives them in different places.

The assay has as its system HBV. Briefly: HBV-DNA antiviral assay using HepG2.117 cells (intracellular HBV DNA by qPCR). The format is cell-based, HBV genotype D. As to conditions: HBV DNA inhibition, 3 days incubation, read-out: EC50. Summed up: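 HepG2.117 cells (stably integrated genotype D HBV, Tet-off) seeded without doxycycline to induce pgRNA, then treated next day with 9 concentrations (4-fold dilutions, 2% DMSO) for 3 days at 37 °C. Intracellular HBV DNA quantified by qPCR against standard curve, viability by ATP content; inhibition relative to DMSO control, EC50/EC90/CC50 by non-linear regression.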

[1] abbreviates: Hepatitis B virus, HepG2.117, 72 h.

As to `CC1Cn2c(c(C(=O)NCc3ccccc3-c3nccc(N)n3)n(-c3ccc(OC4CC4)cc3)c2=O)CN1C(=O)c1ccc(Br)c(C(F)(F)F)c1` (single isomer, unassigned) [Compound 29a], the half-maximal effective concentration (EC50) under setting [1] is below 50 nM. Consider `CC1Cn2c(c(C(=O)NCc3ccccc3-c3nccc(N)n3)n(-c3ccc(OC4CC4)cc3)c2=O)CN1C(=O)c1ccc(Br)c(C(F)(F)F)c1` (single isomer, unassigned) [Compound 29b], for which the EC50 is below 50 nM. Regarding `CC1Cn2c(c(C(=O)NCc3ccccc3-c3nccc(N)n3)n(-c3ccc(OC4CC4)cc3)c2=O)CN1C(=O)c1ccc(Br)c(Cl)c1` (single isomer, unassigned) [Compound 30a], the 50% effective concentration (EC50) under setting [1] is 50 to 500 nM. On to `CC1Cn2c(c(C(=O)NCc3ccccc3-c3nccc(N)n3)n(-c3ccc(OC4CC4)cc3)c2=O)CN1C(=O)c1ccc(Br)c(Cl)c1` (single isomer, unassigned) [Compound 30b], for which the EC50 was below 50 nM. `CC1Cn2c(c(C(=O)NCc3c(F)cccc3-c3nccc(N)n3)n(-c3ccc(OC4CC4)cc3)c2=O)CN1C(=O)c1ccc(Br)c(Cl)c1` (single isomer, unassigned) [Compound 31a]: the EC50 under setting [1] is 50 to 500 nM.

Turning to `CC1Cn2c(c(C(=O)NCc3c(F)cccc3-c3nccc(N)n3)n(-c3ccc(OC4CC4)cc3)c2=O)CN1C(=O)c1ccc(Br)c(Cl)c1` (single isomer, unassigned) [Compound 31b], the concentration for a half-maximal effect (EC50) is below 50 nM. Regarding `CC1Cn2c(c(C(=O)NCc3c(F)cccc3-c3nccc(N)n3)n(-c3ccc(OC4CC4)cc3)c2=O)CN1C(=O)c1ccc(Br)c(C(F)(F)F)c1` (single isomer, unassigned) [Compound 32a], the EC50 under setting [1] is below 50 nM. `CC1Cn2c(c(C(=O)NCc3c(F)cccc3-c3nccc(N)n3)n(-c3ccc(OC4CC4)cc3)c2=O)CN1C(=O)c1ccc(Br)c(C(F)(F)F)c1` (single isomer, unassigned) [Compound 32b]: the concentration for a half-maximal effect (EC50) is below 50 nM.

Take `Cc1nnc(-c2cccc(F)c2CNC(=O)c2c3n(c(=O)n2-c2ccc(OC4CC4)cc2)CC(C)N(C(=O)c2ccc(Br)c(C(F)(F)F)c2)C3)o1` (single isomer, unassigned) [Compound 33a]: the EC50 under setting [1] fell in the range of 50 to 500 nM. With `Cc1nnc(-c2cccc(F)c2CNC(=O)c2c3n(c(=O)n2-c2ccc(OC4CC4)cc2)CC(C)N(C(=O)c2ccc(Br)c(C(F)(F)F)c2)C3)o1` (single isomer, unassigned) [Compound 33b], the concentration giving a half-maximal response (EC50) was below 50 nM. Turning to `CC1Cn2c(c(C(=O)NCc3ccccc3-c3ccccn3)n(-c3ccc(OC4CC4)cc3)c2=O)CN1C(=O)c1ccc(Br)c(C(F)(F)F)c1` (single isomer, unassigned) [Compound 34a], the EC50 under setting [1] was below 50 nM. On to `CC1Cn2c(c(C(=O)NCc3c(F)cccc3-c3cccc(N)n3)n(-c3ccc(OC4CC4)cc3)c2=O)CN1C(=O)c1ccc(Br)c(Cl)c1` (single isomer, unassigned) [Compound 35a], for which, under setting [1], the EC50 is 50 to 500 nM.

Turning to `CC1Cn2c(c(C(=O)NCc3c(F)cccc3-c3cccc(N)n3)n(-c3ccc(OC4CC4)cc3)c2=O)CN1C(=O)c1ccc(Br)c(Cl)c1` (single isomer, unassigned) [Compound 35b], the concentration giving a half-maximal response (EC50) is below 50 nM. Turning to `CC1Cn2c(c(C(=O)NCc3c(F)cccc3-c3cccc(N)n3)n(-c3ccc(OC4CC4)cc3)c2=O)CN1C(=O)c1ccc(Br)c(C(F)(F)F)c1` (single isomer, unassigned) [Compound 36a], the EC50 under setting [1] was below 50 nM. In the case of `CC1Cn2c(c(C(=O)NCc3c(F)cccc3-c3cccc(N)n3)n(-c3ccc(OC4CC4)cc3)c2=O)CN1C(=O)c1ccc(Br)c(C(F)(F)F)c1` (single isomer, unassigned) [Compound 36b], the half-maximal effective concentration (EC50) was below 50 nM. In the case of `COc1nccc(-c2ccccc2CNC(=O)c2c3n(c(=O)n2-c2ccc(OC4CC4)cc2)CC(C)N(C(=O)c2ccc(Br)c(Cl)c2)C3)n1` (single isomer, unassigned) [Compound 37a], the EC50 under setting [1] lay in the range of 50 to 500 nM.

With `COc1nccc(-c2ccccc2CNC(=O)c2c3n(c(=O)n2-c2ccc(OC4CC4)cc2)CC(C)N(C(=O)c2ccc(Br)c(Cl)c2)C3)n1` (single isomer, unassigned) [Compound 37b], the 50% effective concentration (EC50) is below 50 nM.

Consider `COc1nccc(-c2ccccc2CNC(=O)c2c3n(c(=O)n2-c2ccc(OC4CC4)cc2)CC(C)N(C(=O)c2ccc(Br)c(C(F)(F)F)c2)C3)n1` (single isomer, unassigned) [Compound 38a], for which the concentration giving a half-maximal response (EC50) under setting [1] is below 50 nM.

In the case of `COc1nccc(-c2ccccc2CNC(=O)c2c3n(c(=O)n2-c2ccc(OC4CC4)cc2)CC(C)N(C(=O)c2ccc(Br)c(C(F)(F)F)c2)C3)n1` (single isomer, unassigned) [Compound 38b], the EC50 is below 50 nM. For the compound `CNc1cc(-c2ccccc2CNC(=O)c2c3n(c(=O)n2-c2ccc(OC4CC4)cc2)CC(C)N(C(=O)c2ccc(Br)c(C(F)(F)F)c2)C3)ncn1` (single isomer, unassigned) [Compound 40a], the 50% effective concentration (EC50) under setting [1] is below 50 nM. With `CNc1cc(-c2ccccc2CNC(=O)c2c3n(c(=O)n2-c2ccc(OC4CC4)cc2)CC(C)N(C(=O)c2ccc(Br)c(C(F)(F)F)c2)C3)ncn1` (single isomer, unassigned) [Compound 40b], the EC50 was below 50 nM.

`CC1Cn2c(c(C(=O)NCc3ccccc3-c3cc(N)cnn3)n(-c3ccc(OC4CC4)cc3)c2=O)CN1C(=O)c1ccc(Br)c(Cl)c1` (single isomer, unassigned) [Compound 42a]: the EC50 lay within 500 to 5000 nM. As for `CC1Cn2c(c(C(=O)NCc3ccccc3-c3cc(N)cnn3)n(-c3ccc(OC4CC4)cc3)c2=O)CN1C(=O)c1ccc(Br)c(Cl)c1` (single isomer, unassigned) [Compound 42b], the half-maximal effective concentration (EC50) lay in the range of 50 to 500 nM. Regarding `CC1Cn2c(c(C(=O)NCc3ccccc3-c3cc(N)cnn3)n(-c3ccc(OC4CC4)cc3)c2=O)CN1C(=O)c1ccc(Br)c(C(F)(F)F)c1` (single isomer, unassigned) [Compound 43a], the EC50 lay within 500 to 5000 nM. Still for that read-out and setting: the figure for `CC1Cn2c(c(C(=O)NCc3ccccc3-c3cc(N)cnn3)n(-c3ccc(OC4CC4)cc3)c2=O)CN1C(=O)c1ccc(Br)c(C(F)(F)F)c1` (single isomer, unassigned) [Compound 43b] is 50 to 500 nM. In the case of `CC1Cn2c(c(C(=O)NCc3ccccc3-c3c[nH]cn3)n(-c3ccc(OC4CC4)cc3)c2=O)CN1C(=O)c1ccc(Br)c(Cl)c1` (single isomer, unassigned) [Compound 44a], the EC50 under setting [1] was 50 to 500 nM. Regarding `CC1Cn2c(c(C(=O)NCc3ccccc3-c3c[nH]cn3)n(-c3ccc(OC4CC4)cc3)c2=O)CN1C(=O)c1ccc(Br)c(Cl)c1` (single isomer, unassigned) [Compound 44b], the EC50 is below 50 nM. As for `Cc1nnc(-c2cccc(F)c2CNC(=O)c2c3n(c(=O)n2-c2ccc(OC4CC4)cc2)CC(C)N(C(=O)c2ccc(Br)c(Cl)c2)C3)o1` (single isomer, unassigned) [Compound 45a], under setting [1], the EC50 fell in the range of 50 to 500 nM. Consider `Cc1nnc(-c2cccc(F)c2CNC(=O)c2c3n(c(=O)n2-c2ccc(OC4CC4)cc2)CC(C)N(C(=O)c2ccc(Br)c(Cl)c2)C3)o1` (single isomer, unassigned) [Compound 45b], for which the half-maximal effective concentration (EC50) is 50 to 500 nM. Turning to `Cc1nc2cc(-n3c(C(=O)NCc4ccccc4-c4ccncn4)c4n(c3=O)CC(C)N(C(=O)c3ccc(Br)c(Cl)c3)C4)ccc2o1` (single isomer, unassigned) [Compound 46a], under setting [1], the EC50 fell in the range of 50 to 500 nM.
